In US12377056B2, “Cladribine regimen for treating multiple sclerosis” (priority 2006, dated 2025):

Assays:
[1] = tested on: patients with relapsing form of clinically definite MS who relapsed while taking Rebif®; experiment: Example 2: oral Cladribine added to Rebif in MS patients with a relapse while taking Rebif (MRI brain lesions, safety); format: in vivo, human
[2] = tested on: patients with primary progressive (PP) or secondary progressive (SP) multiple sclerosis; details: Phase III; 0.07 mg/kg/day s.c., repeated for 2 or 6 months; cited from earlier work
[3] = tested on: patients with Chronic Progressive MS and Relapsing-Remitting MS; details: cited from earlier work
[4] = tested on: patients with relapsing forms of clinically definite multiple sclerosis; experiment: Example 1: oral Cladribine in patients with relapsing forms of MS (MRI brain lesions, safety); format: in vivo, human; details: for brain lesions (MRI): then maintenance
Text: Each patient is first examined for normal hepatic, renal, and bone marrow functioning to establish baseline values. Patients are selected from Male or Female, between 18 and 55 years of age who had one or more relapses within the prior 12 months. Female patients are non-pregnant female. […] Patients are monitored to determine whether there is any progression or improvement of brain lesions associated with progression of MS through MRI scans and neurological examination as described in Miller et al., 1996, above; Evans et al., 1997, above; Sipe et al., 1984, above; and Mattson, 2002, above. All patients have a baseline and MRI study (brain or spinal cord, according to localization of the lesions) at month 12. The patient's disability progression and the time for having a first relapse are monitored as well as the proportion of relapse-free patients at 24 months. Lymphocyte markers and monocyte counts are monitored in the patients.

[5] = tested on: patients with remitting-relapsing multiple sclerosis; details: oral, 6 monthly courses of 5 days, total dose about 4-5.7 mg/kg; compared with i.v. infusion study (Sipe et al., 1994); cited from earlier work
[6] = oral 2-CdA induction and maintenance treatments combined with Rebif 44 mcg s.c. TIW, 96 weeks
[7] = oral 2-CdA cyclodextrin tablets, induction treatment followed by maintenance treatments

SMILES: Nc1nc(Cl)nc2c1ncn2[C@H]1C[C@H](O)[C@@H](CO)O1 [Cladribine, 2-chloro-2′deoxyadenosine]
- brain lesions (MRI) ([1]; Group 2: low dose cladribine (1.75 mg/kg induction + 1.75 mg/kg maintenance) added to Rebif 44 mcg s.c. TIW): decrease in brain lesions
- brain lesions (MRI) ([1]; Group 3: high dose cladribine (3.5 mg/kg induction + 1.75 mg/kg maintenance) added to Rebif 44 mcg s.c. TIW): decrease in brain lesions
- adverse effects [1, 6]: no severe adverse effect is observed
- effect of the regimen on brain lesions [1, 6]: efficient in decreasing brain lesions
- MRI-measured brain lesions [2]: significant reduction of MRI-measured brain lesions
- EDSS, SNRS scores and MRI findings ([3]; Phase II, 0.1 mg/kg/day 7 days i.v. x 4 months or 0.07 mg/kg/day 5 days s.c. x 6 months): positive effects
- adverse effects (AEs) ([3]; observed with the highest doses (Selby et al., 1998; Beutler et al., 1994)): increased incidence of infections related to compromised immune function or myelosuppression
- brain lesions (MRI) ([4]; Group 2: oral 2-CdA total dose 1.75 mg/kg over 2 months induction): decrease in brain lesions
- brain lesions (MRI) ([4]; Group 3: oral 2-CdA total dose 3.5 mg/kg over 4 months induction): decrease in brain lesions
- adverse effects [4, 7]: no severe adverse effect is observed
- effect of the regimen on brain lesions [4, 7]: efficient in decreasing brain lesions
- side effects [5]: less severe
